The text below walks through data of article PMC6943619, “Synthesis and Pharmacological Evaluation of Hybrids Targeting Opioid and Neurokinin Receptors” (Molecules, 2019).

Data set [1] deals with T1, human KOR (Homo sapiens, UniProt P41145).
T1 construct: expressed in transfected cells; host or cells: CHO cells (University of Ferrara), co-expressing Gαqi5
Description: Calcium mobilization functional assay, agonist mode. The format is cell-based. The note with it: CHO cells co-expressing human KOR and Gαqi5; Fluo-4 AM calcium signal; n = 5; read-out: KOR pEC50 (CL95%) (converted). On the technique in general: Calcium assays in cells follow changes in intracellular calcium, usually with a dye or a luminescent sensor.

In data set [2] the target is T2, human MOR (Homo sapiens, UniProt P35372).
T2 construct: expressed in transfected cells; host or cells: CHO cells (University of Ferrara), co-expressing Gαqi5
The data set is described as above. The format is cell-based. To be noted: CHO cells co-expressing human MOR and Gαqi5; Fluo-4 AM calcium signal; n = 5; read-out: MOR pEC50 (CL95%) (converted).

Data set [3] has as its target T3, human opioid receptor MOR (Homo sapiens, UniProt P35372).
T3 construct: purchased PerkinElmer (Krakow, Poland); host or cells: CHO cell membranes
Kind of data set: Radioligand binding assay, displacement of [3H]DAMGO. To be noted: displacement of [3H]DAMGO from membranes of CHO cells transfected with human MOR, 50 mM Tris/HCl pH 7.4, 0.5% BSA, peptidase inhibitors, 2 h at 25 °C, mean ± SEM, n ≥ 3. As for the experimental part:
(§1) A radioligand binding assay was performed to determine the opioid receptor (OR) binding affinities of the novel analogs using commercially available membranes of Chinese hamster ovary cells (CHO) transfected with human recombinant ORs. [^3H]DAMGO, [^3H]deltorphin-2, and [^3H]U-69593 were used as the radioligands for MOR, DOR, and KOR, respectively. Tyr-[D-Lys-Phe-Phe-Asp]NH2 (1) was used as a reference opioid compound. […] None of them acquired significant DOR affinity.
(§2) To determine the affinity of peptide analogs to respective receptors, competition binding experiments were performed, as described in detail elsewhere.
(§3) Commercial membranes of CHO cells stably expressing either human ORs or NK1 receptor were used. [^3H]DAMGO, [^3H]deltorphin-2, and [^3H]U-69593 were employed as the competing radioligands for MOR, DOR, and KOR, respectively, while [^3H][Sar^9, Met(O2)^11]SP was utilized for the NK1 receptor. Membranes were incubated in a 0.5 mL volume of 50 mM Tris/HCl (pH = 7.4), 0.5% bovine serum albumin (BSA), with a number of peptidase inhibitors (bacitracin, bestatin, captopril) and various concentrations of radioligands for 2 h at 25 °C. Nonspecific binding was assessed in the presence of […] naloxone for ORs or SP for NK1 receptor.
(§4) The pharmacological terminology adopted in this paper is consistent with International Union of Basic and Clinical Pharmacology (IUPHAR) recommendations. Concentration–response curves were analyzed by nonlinear regression using Graph Pad Prism 6.0 (La Jolla, CA, USA). […]. […] Concentration–response curves were fitted with the four-parameter logistic nonlinear regression model (1) Effect=baseline+Emax−baseline/1+10^logEC50−X·n where X is the agonist concentration and n is the Hill coefficient. Ligand efficacy was expressed as intrinsic activity (α) calculated as a ratio of the peptide Emax to the Emax of the standard agonist (Supplementary Materials, Figure S7). […]. All statistical analyses were performed using Graph Pad Prism 6.0 (La Jolla, CA, USA). Differences between groups were analyzed with one-way ANOVA and a post hoc multiple comparison by the Student–Newman–Keuls test. A probability level of 0.05 or smaller was used to indicate statistical significance.

Data set [4] has as its target T4, human opioid receptor KOR (Homo sapiens, UniProt P41145).
T4 construct: purchased PerkinElmer (Krakow, Poland); host or cells: CHO cell membranes
Kind of data set: Radioligand binding assay, displacement of [3H]U-69593. To be noted: displacement of [3H]U-69593 from membranes of CHO cells transfected with human KOR, 50 mM Tris/HCl pH 7.4, 0.5% BSA, peptidase inhibitors, 2 h at 25 °C, mean ± SEM, n ≥ 3. As for the experimental part: as §1, §2, §3, §4

The target in data set [5] is T5, DOR (Homo sapiens, UniProt P41143).
T5 construct: expressed in transfected cells; host or cells: CHO cells (University of Ferrara), co-expressing GαqG66Di5
Kind of data set: Calcium mobilization functional assay, agonist mode. The note with it: CHO cells co-expressing DOR and GαqG66Di5; Fluo-4 AM calcium signal; n = 5. The data set is classed as cell-based.

Data set [6] concerns the target T6, human opioid receptor DOR (Homo sapiens, UniProt P41143).
T6 construct: purchased PerkinElmer (Krakow, Poland); host or cells: CHO cell membranes
Description: Radioligand binding assay, displacement of [3H]deltorphin-2. The note with it: displacement of [3H]deltorphin-2 from membranes of CHO cells transfected with human DOR, 50 mM Tris/HCl pH 7.4, 0.5% BSA, peptidase inhibitors, 2 h at 25 °C, mean ± SEM, n ≥ 3. The method, then: A radioligand binding assay was performed to determine the opioid receptor (OR) binding affinities of the novel analogs using commercially available membranes of Chinese hamster ovary cells (CHO) transfected with human recombinant ORs. […] Tyr-[D-Lys-Phe-Phe-Asp]NH2 (1) was used as a reference opioid compound.
as §2
(§5) Commercial membranes of CHO cells stably expressing either human ORs or NK1 receptor were used. […] Membranes were incubated in a 0.5 mL volume of 50 mM Tris/HCl (pH = 7.4), 0.5% bovine serum albumin (BSA), with a number of peptidase inhibitors (bacitracin, bestatin, captopril) and various concentrations of radioligands for 2 h at 25 °C.
(§6) The pharmacological terminology adopted in this paper is consistent with International Union of Basic and Clinical Pharmacology (IUPHAR) recommendations. Concentration–response curves were analyzed by nonlinear regression using Graph Pad Prism 6.0 (La Jolla, CA, USA). […] Concentration–response curves were fitted with the four-parameter logistic nonlinear regression model (1) Effect=baseline+Emax−baseline/1+10^logEC50−X·n where X is the agonist concentration and n is the Hill coefficient. Ligand efficacy was expressed as intrinsic activity (α) calculated as a ratio of the peptide Emax to the Emax of the standard agonist (Supplementary Materials, Figure S7). […] All statistical analyses were performed using Graph Pad Prism 6.0 (La Jolla, CA, USA). Differences between groups were analyzed with one-way ANOVA and a post hoc multiple comparison by the Student–Newman–Keuls test. A probability level of 0.05 or smaller was used to indicate statistical significance.

Data set [7] has as its target human NK1 (Homo sapiens, UniProt P25103). Kind of data set: Radioligand binding assay, displacement of [3H][Sar9, Met(O2)11]SP. Also noted: purchased PerkinElmer (Krakow, Poland); host or cells: CHO cell membranes. To be noted: displacement of [3H][Sar9, Met(O2)11]SP from membranes of CHO cells transfected with human NK1 receptor; 50 mM Tris/HCl pH 7.4, 0.5% BSA, peptidase inhibitors, 2 h at 25 °C; mean ± SEM, n ≥ 3. The method, then: The binding assay was also used to examine the affinity of the synthesized hybrids for NK1 in commercial membranes of CHO cells stably expressing human NK1.
as §2, §5, §6

The conditions of data set [8]: cited from earlier work. From the text: Here, we report on the synthesis and the initial pharmacological testing of several hybrid peptides with opioid agonist/NK1 antagonist and opioid agonist/NK1 agonist profiles. We performed structure affinity/activity relationship studies, seeking hybrids that could simultaneously and potently bind opioid and NK1 receptors. Both types of hybrids were designed with the same opioid fragment to make the comparison of their activity easier. It was already documented in the literature that simultaneous activation of both MOR and KOR intensifies the analgesic effect of pure MOR agonists. There ...

The test system of data set [9] is mice. Kind of data set: Stool collection (stool mass, stool water content). The format is in vivo. To be noted: repeated i.p. injections 5 mg/kg, stool collected 90 min after injection on Days 1–6, compared to control group, n = 10. As for the experimental part:
In order to determine the influence of prolonged administration of the tested compounds on gastrointestinal passage, stool was collected for six days from mice used in the tolerance development test.
Figure 5 Effect of repeated i.p. injections of saline and the tested peptides on stool mass (A), stool water content (B), food intake (C), and water consumption (D). The data represent mean ± SEM, n = 10. Statistical significance was assessed using one-way ANOVA and a post hoc multiple comparison by the Student–Newman–Keuls test. *** p < 0.001, as compared to control.
After the i.p. injections of saline or peptides (Days 1–6), mice were placed in a separate clean cages and stool was collected for a period of 90 min. Fecal pellets were collected immediately after expulsion to avoid evaporation and placed in closed 1.5 mL tubes. Tubes were weighed to obtain the wet weight of the stool. Then, the tubes were opened and stool was dried overnight at 65 °C and reweighed to obtain the dry weight. The stool water content was calculated from the difference between the wet and dry stool weights.

Where a SMILES comes first, the peptide text is derived from it. Bridges are numbered along the chain shown (N, C = ends). [ ]: non-standard residue; d: D form.

Chain of human NK1 (P25103 whole entry): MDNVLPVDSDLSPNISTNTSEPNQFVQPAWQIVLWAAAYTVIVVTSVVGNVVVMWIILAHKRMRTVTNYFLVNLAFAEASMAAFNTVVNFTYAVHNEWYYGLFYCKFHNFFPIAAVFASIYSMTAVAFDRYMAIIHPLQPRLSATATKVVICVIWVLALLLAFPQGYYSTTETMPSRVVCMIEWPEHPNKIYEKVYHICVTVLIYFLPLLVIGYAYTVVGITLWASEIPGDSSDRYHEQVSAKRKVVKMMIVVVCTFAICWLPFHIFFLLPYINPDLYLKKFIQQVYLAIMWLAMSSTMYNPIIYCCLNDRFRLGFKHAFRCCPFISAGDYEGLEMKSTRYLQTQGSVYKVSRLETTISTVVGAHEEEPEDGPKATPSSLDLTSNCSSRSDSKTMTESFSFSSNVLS
T6 sequence (P41143 whole entry): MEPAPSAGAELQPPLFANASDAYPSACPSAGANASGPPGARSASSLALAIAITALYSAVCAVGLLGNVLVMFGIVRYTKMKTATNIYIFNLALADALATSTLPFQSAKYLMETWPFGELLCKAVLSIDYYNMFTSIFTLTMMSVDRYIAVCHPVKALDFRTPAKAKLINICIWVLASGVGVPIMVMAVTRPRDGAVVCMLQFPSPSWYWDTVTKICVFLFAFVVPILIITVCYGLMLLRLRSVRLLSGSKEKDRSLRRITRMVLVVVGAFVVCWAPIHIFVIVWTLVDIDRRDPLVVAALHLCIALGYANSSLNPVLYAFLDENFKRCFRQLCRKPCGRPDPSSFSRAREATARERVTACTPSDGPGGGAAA
T5 sequence (P41143 whole entry): as above
T3 sequence (P35372 whole entry): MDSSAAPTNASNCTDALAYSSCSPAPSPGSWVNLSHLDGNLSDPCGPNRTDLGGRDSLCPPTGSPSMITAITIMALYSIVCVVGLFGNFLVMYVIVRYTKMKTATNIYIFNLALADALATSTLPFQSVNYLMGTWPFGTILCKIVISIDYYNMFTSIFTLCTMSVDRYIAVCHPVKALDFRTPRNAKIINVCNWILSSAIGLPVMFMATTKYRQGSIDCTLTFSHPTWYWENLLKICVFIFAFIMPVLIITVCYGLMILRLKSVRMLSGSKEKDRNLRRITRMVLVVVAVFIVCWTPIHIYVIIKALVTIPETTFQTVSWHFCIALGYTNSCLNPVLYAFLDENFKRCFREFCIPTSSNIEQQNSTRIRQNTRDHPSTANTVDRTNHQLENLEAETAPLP
T2 sequence (P35372 whole entry): as above
T4 sequence (P41145 whole entry): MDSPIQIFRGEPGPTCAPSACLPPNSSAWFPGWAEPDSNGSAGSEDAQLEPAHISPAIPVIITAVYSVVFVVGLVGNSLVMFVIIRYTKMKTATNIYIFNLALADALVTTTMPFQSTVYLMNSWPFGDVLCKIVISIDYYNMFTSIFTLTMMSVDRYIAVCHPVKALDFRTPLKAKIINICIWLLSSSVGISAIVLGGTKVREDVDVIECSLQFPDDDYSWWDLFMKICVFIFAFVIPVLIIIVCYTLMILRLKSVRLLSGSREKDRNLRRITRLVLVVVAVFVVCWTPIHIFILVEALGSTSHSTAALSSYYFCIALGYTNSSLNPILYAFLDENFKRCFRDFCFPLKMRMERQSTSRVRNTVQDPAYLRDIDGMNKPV
T1 sequence (P41145 whole entry): as above

By Ki is commonly meant a measure of affinity in units of concentration, obtained from inhibition or displacement. Higher therefore signals weaker binding. In the case of `NC(=O)[C@@H]1CC(=O)NCCCC[C@@H](NC(=O)[C@@H](N)Cc2ccc(O)cc2)C(=O)N[C@@H](Cc2ccccc2)C(=O)N[C@@H](Cc2ccccc2)C(=O)N1` [compound 1, Tyr-c[D-Lys-Phe-Phe-Asp]NH2] (H-Y[dK]FFD-NH2; lactam 2-5), the results for the EC50 in data set [1] and in [2] were 2.19 nM and 1.05 nM, respectively. Also, the Ki amounted to 0.35 ± 0.02 nM in data set [3], 1.12 ± 0.2 nM in data set [4] and 171 ± 3.5 nM in data set [6]. Moreover, in data set [5], the “DOR pEC50 (CL95%)” value is listed as “Crc incomplete”. Also, in data set [7], the “Ki NK1” value is given as “Inactive”. The enzymatic stability result in data set [8] is recorded as “very good enzymatic stability”. Further, the “stool mass (constipation)” value in [9] is reported as “serious constipation”.
